Measured values published in patent US9334264B2, “NAMPT inhibitors” (AbbVie Inc., priority 2012, dated 2016).
pIC50: −log10 of the molar value.

What was measured:
activated T cells = conditions: cited from earlier work
[1] = tested on: collagen-induced arthritis; conditions: cited from earlier work
[2] = tested on: experimental autoimmune encephalomyelitis (EAE); conditions: a model of T-cell mediated autoimmune disorders; cited from earlier work
[3] = molecular target: NAMPT (human, recombinant, C-terminally His-tagged) (Homo sapiens, UniProt P43490); test: Time-Resolved Fluorescence Resonance Energy Transfer (TR-FRET) Binding Assay of NAMPT; conditions: absence of substrates; 6.8 nM NAMPT, 200 nM probe, equilibrated 3 hours
NAMPT (human, recombinant, C-terminally His-tagged), sequence (P43490 whole entry): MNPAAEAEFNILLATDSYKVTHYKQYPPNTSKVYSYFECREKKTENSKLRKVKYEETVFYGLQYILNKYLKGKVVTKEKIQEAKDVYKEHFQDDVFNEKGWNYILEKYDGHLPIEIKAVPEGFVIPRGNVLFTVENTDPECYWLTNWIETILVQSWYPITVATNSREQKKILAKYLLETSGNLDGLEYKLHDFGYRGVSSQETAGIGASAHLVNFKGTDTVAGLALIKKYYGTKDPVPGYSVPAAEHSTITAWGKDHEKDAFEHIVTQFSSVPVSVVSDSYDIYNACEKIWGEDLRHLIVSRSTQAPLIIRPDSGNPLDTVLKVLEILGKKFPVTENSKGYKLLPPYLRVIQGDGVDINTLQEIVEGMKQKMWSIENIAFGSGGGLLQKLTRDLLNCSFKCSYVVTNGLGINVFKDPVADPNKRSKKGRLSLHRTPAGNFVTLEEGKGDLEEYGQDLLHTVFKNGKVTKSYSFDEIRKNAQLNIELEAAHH
How it was run: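 Displacement of 200 nM Oregon Green-labelled nicotinamide-competitive probe from 6.8 nM His-tagged NAMPT, detected with 1 nM Tb-anti-His; HEPES pH 7.5, 2% DMSO, 3 h room temperature. Em520/Em495 ratios normalized and fit four-parameter logistic for IC50.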

NAMPT = NAMPT (Homo sapiens, UniProt P43490); test: Time-Resolved Fluorescence Resonance Energy Transfer (TR-FRET) Binding Assay of NAMPT with PRPP; conditions: 200 μM PRPP and 2.5 mM ATP; 2 nM NAMPT, 2 nM probe, equilibrated 16 hours
NAMPT, sequence (P43490 whole entry): as above
How it was run: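 Binding was measured by TR-FRET with 2 nM NAMPT, 2 nM probe and 1 nM Tb-anti-His antibody in the presence of 200 μM PRPP and 2.5 mM ATP, with 2% DMSO. Equilibration lasted 16 h before reading, allowing possible enzymatic modification of compounds.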

SMILES | apoptosis of activated T cells (activated T cells) | proliferation of activated T cells (activated T cells) | efficacy in animal models of arthritis [1] | manifestations of experimental autoimmune encephalomyelitis [2] | pIC50 [3] | pIC50 (NAMPT)
O=C(/C=C/c1cccnc1)NCCCCC1CCN(C(=O)c2ccccc2)CC1 [FK866] | induce apoptosis | selectively block proliferation | efficacious | ameliorated the manifestations |  | 
CC(C)OCCNC(=O)N(Cc1ccc(C#N)cc1)c1ncc(C(=O)NCCCn2ccnc2)s1 [Example 123, 2-[(4-cyanobenzyl){[2-(propan-2-yloxy)ethyl]carbamoyl}amino]-N-[3-(1H-imidazol-1-yl)propyl]-1,3-thiazole-5-carboxamide] |  |  |  |  | 5.42 | 9.20
CC(C)CCN(Cc1ccc(C#N)cc1)c1ncc(C(=O)NCCCn2ccnc2)s1 [Example 60, 2-[(4-cyanobenzyl)(3-methylbutyl)amino]-N-[3-(1H-imidazol-1-yl)propyl]-1,3-thiazole-5-carboxamide] |  |  |  |  | < 5.00 | 8.30
O=C(NCCCn1ccnc1)c1cnc(N(Cc2ccc(F)cc2)C(=O)CC2CCCCC2)s1 [Example 5, 2-[(cyclohexylacetyl)(4-fluorobenzyl)amino]-N-[3-(1H-imidazol-1-yl)propyl]-1,3-thiazole-5-carboxamide] |  |  |  |  | 6.14 | 9.34
CCCOCCNC(=O)N(Cc1ccc(F)cc1)c1ncc(C(=O)NCCCn2ccnc2)s1 [Example 78, 2-{(4-fluorobenzyl)[(2-propoxyethyl)carbamoyl]amino}-N-[3-(1H-imidazol-1-yl)propyl]-1,3-thiazole-5-carboxamide] |  |  |  |  | 5.54 | 9.01
COCCN(C)C(=O)N(Cc1ccc(F)cc1)c1ncc(C(=O)NCCCn2ccnc2)s1 [Example 69, 2-{(4-fluorobenzyl)[(2-methoxyethyl)(methyl)carbamoyl]amino}-N-[3-(1H-imidazol-1-yl)propyl]-1,3-thiazole-5-carboxamide] |  |  |  |  | < 5.00 | 8.40
COCCC(=O)N(CCOC)c1ncc(C(=O)NCCCn2ccnc2)s1 [Example 175, N-[3-(1H-imidazol-1-yl)propyl]-2-[(2-methoxyethyl)(3-methoxypropanoyl)amino]-1,3-thiazole-5-carboxamide] |  |  |  |  | 5.94 | 9.22
COCCC(=O)N(Cc1cnccc1C)c1ncc(C(=O)NCCCn2ccnc2)s1 [Example 97, N-[3-(1H-imidazol-1-yl)propyl]-2-{(3-methoxypropanoyl)[(4-methylpyridin-3-yl)methyl]amino}-1,3-thiazole-5-carboxamide] |  |  |  |  | < 5.00 | 8.23
COCCN(C(=O)Cc1cccnc1)c1ncc(C(=O)NCCCn2ccnc2)s1 [Example 184, N-[3-(1H-imidazol-1-yl)propyl]-2-[(2-methoxyethyl)(pyridin-3-ylacetyl)amino]-1,3-thiazole-5-carboxamide] |  |  |  |  | 6.12 | 9.55
O=C(NCCCn1ccnc1)c1cnc(N(Cc2ccc(F)cc2)C(=O)CN2CCCC(O)C2)s1 (stereo not drawn) [Example 41, 2-{(4-fluorobenzyl)[(3-hydroxypiperidin-1-yl)acetyl]amino}-N-[3-(1H-imidazol-1-yl)propyl]-1,3-thiazole-5-carboxamide] |  |  |  |  | 5.07 | 7.53
CC(C)CCN(C(=O)C1CCOC1)c1ncc(C(=O)NCCCn2ccnc2)s1 (stereo not drawn) [Example 155, N-[3-(1H-imidazol-1-yl)propyl]-2-[(3-methylbutyl)(tetrahydrofuran-3-ylcarbonyl)amino]-1,3-thiazole-5-carboxamide] |  |  |  |  | 6.17 | 9.60
COCCC(=O)N(Cc1cocn1)c1ncc(C(=O)NCCCn2ccnc2)s1 [Example 95, N-[3-(1H-imidazol-1-yl)propyl]-2-[(3-methoxypropanoyl)(1,3-oxazol-4-ylmethyl)amino]-1,3-thiazole-5-carboxamide] |  |  |  |  | 5.41 | 7.82
CC(C)C(CC(=O)O)NC(=O)N(Cc1ccc(C#N)cc1)c1ncc(C(=O)NCCCn2ccnc2)s1 (stereo not drawn) [Example 168, 3-{[(4-cyanobenzyl)(5-{[3-(1H-imidazol-1-yl)propyl]carbamoyl}-1,3-thiazol-2-yl)carbamoyl]amino}-4-methylpentanoic acid] |  |  |  |  | < 5.00 | 5.86
COC1CCN(C(=O)N(Cc2ccc(F)cc2)c2ncc(C(=O)NCCCn3ccnc3)s2)C1 (stereo not drawn) [Example 68, 2-{(4-fluorobenzyl)[(3-methoxypyrrolidin-1-yl)carbonyl]amino}-N-[3-(1H-imidazol-1-yl)propyl]-1,3-thiazole-5-carboxamide] |  |  |  |  | < 5.00 | 8.33
O=C(NCCCn1ccnc1)c1cnc(N(Cc2ccc(F)cc2)C(=O)CN2CCN(CC3CC3)CC2)s1 [Example 34, 2-[{[4-(cyclopropylmethyl)piperazin-1-yl]acetyl}(4-fluorobenzyl)amino]-N-[3-(1H-imidazol-1-yl)propyl]-1,3-thiazole-5-carboxamide] |  |  |  |  | 5.12 | 9.30
COCCCNC(=O)N(Cc1ccc(C#N)cc1)c1ncc(C(=O)NCCCn2ccnc2)s1 [Example 166, 2-{(4-cyanobenzyl)[(3-methoxypropyl)carbamoyl]amino}-N-[3-(1H-imidazol-1-yl)propyl]-1,3-thiazole-5-carboxamide] |  |  |  |  | < 5.00 | 6.20
CC(C)CCN(Cc1ccccc1Cl)c1ncc(C(=O)NCCCn2ccnc2)s1 [Example 57, 2-[(2-chlorobenzyl)(3-methylbutyl)amino]-N-[3-(1H-imidazol-1-yl)propyl]-1,3-thiazole-5-carboxamide] |  |  |  |  | < 5.00 | 5.94
COCCC(=O)N(Cc1ccccn1)c1ncc(C(=O)NCCCn2ccnc2)s1 [Example 121, N-[3-(1H-imidazol-1-yl)propyl]-2-[(3-methoxypropanoyl)(pyridin-2-ylmethyl)amino]-1,3-thiazole-5-carboxamide] |  |  |  |  | < 5.00 | 8.03
C=C[C@@H](CO)NC(=O)N(Cc1ccc(C#N)cc1)c1ncc(C(=O)NCCCn2ccnc2)s1 [Example 131, 2-[(4-cyanobenzyl){[(2S)-1-hydroxybut-3-en-2-yl]carbamoyl}amino]-N-[3-(1H-imidazol-1-yl)propyl]-1,3-thiazole-5-carboxamide] |  |  |  |  | 5.32 | 9.13
O=C(NCCCn1ccnc1)c1cnc(N(Cc2ccc(Cl)cn2)C(=O)C2CCOC2)s1 (stereo not drawn) [Example 206, 2-{[(5-chloropyridin-2-yl)methyl](tetrahydrofuran-3-ylcarbonyl)amino}-N-[3-(1H-imidazol-1-yl)propyl]-1,3-thiazole-5-carboxamide] |  |  |  |  | 5.25 | 9.20
